Legend:
TRPV4 = TRPV4 (Mus musculus, UniProt Q9EPK8); experiment: GSK-evoked [Ca++]i in retinal Müller glial cells; type: cell-based; design: endogenous in cells; host or cells: retinal Müller glial cells
retinal ganglion cell = experiment: High-Speed Pressure Clamp, pressure-induced inward currents; type: cell-based; conditions: voltage-clamped retinal ganglion cell, pressure steps 10 to 50 mm Hg
Protocol: The cell was voltage clamped and stimulated with the High-Speed Pressure Clamp method, as detailed by Besch et al (Pflugers Arch. 2002 October; 445(1):161-6). This method consists of a specialized headstage coupled to a piezo element in the pressure/vacuum control valve. By balancing the access of pressure to the patch pipette, the device generates rapid and reproducible pressure steps of >±200 mm Hg. Channel activity is recorded in the cell-attached mode or the membrane is “zapped” into the outside-out configuration.

retinal ganglion cells [1] = experiment: In vivo intraocular injection of GSK, NeuN+ RGC count; conditions: intraocular GSK, 48 hours
Protocol: In this experiment, GSK (100-300 nM) was injected intraocularly with a Hamilton syringe. Retinas were isolated after 48 hours, fixed and labeled with the RGC marker antibody NeuN. NeuN-immunopositive somata in the ganglion cell layer, shown in the panel on the right, were counted. The bar graph represents quantification of NeuN^+ cells in the indicated experimental groups.

MB model of glaucoma = experiment: IOP time course after single eye drop in MB model of glaucoma; type: in vivo, mouse; conditions: single dose eye drop
Protocol: Specifically, microbeads (MBs) were injected into the anterior chamber of a mouse eye as described in Example 2 with PBS-injected eyes used as controls. Compound 1 (10 mg/kg body weight) (or PBS vehicle) was injected intraperitoneally (IP). […] IOP was measured in mice between 10:00 AM and 1:00 PM with the TonoLab rebound tonometer (Colonial Medical Supply, Franconia, NH/Tyolat, Helsinki, Finland). Mice were sedated with IP injection of Avertin with final amount calculated by weight (e.g., 0.5 ml for 21-24 g animals). Animals were placed on a jack stand platform and the tonolab was clamped on a ring stand and centered onto the mid-cornea. During measurements animal were neither restrained nor touched. Each eye was measured twenty consecutive times, the highest and lowest values were discarded and the values were averaged.
FIG. 9 illustrates the short-term effects of a single dose of Compound 1 (eye drop) in the MB model of glaucoma. IOP was measured as described in Example 3 at the indicated time points after receiving a drop of Compound 1. Compound 1 reduced IOP beginning at 1 hour after dosing and continued through 6 hours after dosing.
FIG. 10 illustrates a time course of Compounds 1, 2, 5 and Compound 2-HCl as well as a positive control compound, timolol, with regard to inhibition of IOP. The experiment was conducted as described in Example 9. Each of the TRPV4 antagonists reduced IOP with a similar time course. Specifically, Compounds 1, 2, 5 and Compound 2-HCl reduced IOP for at least 6 hours after dosing.
FIG. 11 illustrates a time course of Compound 2-HCl activity. The experiment was conducted as described in Example 9. […] 2
FIG. 12 illustrates a comparison of the time course of Compound 2-HCl and Compound 5. The experiment was conducted as described in Example 9.

[2] = test system: MB mouse model of glaucoma; experiment: IOP in microbead (MB) mouse model of glaucoma, IP dosing; type: in vivo; conditions: 10 mg/kg body weight IP; MB-injected mice
Protocol: FIG. 2 confirms that the mouse model for glaucoma causes RGC degeneration. Specifically, microbeads (MBs) were injected into the anterior chamber of a mouse eye. The MBs increase intraocular IOP above 15 mm Hg by blocking outflow of the aqueous humor within the anterior chamber of the eye. MBs were reinjected as needed to maintain a high IOP, typically one injection every two weeks. Contralateral eyes were injected intraocularly with the vehicle PBS (phosphate buffered saline) as controls. […] IOP levels were measured at least twice weekly before and after intraocular injections. After injections, mice recovered for 48 hours before IOP measurements resumed. […] Retinas were then removed and processed for immunohistochemistry (IHC). […] After rinsing with PBS, PBS containing the secondary antibody conjugated to fluorophores (Alexa 488 or Alexa 594; […] Retinas were rinsed and flat-mounted on microscope slides. Mounting medium was added and retinal wholemounts were coverslipped. The density of RGCs was imaged with a confocal microscope (Zeiss LSM 510) and quantified by counting NeuN-, CFP- and/or Tuj-1-labeled somata in the RGC layer of the retinal wholemount preparation. Injection of microbeads induces RGC degeneration after 8 weeks but not after 4 weeks. […] Mice were sedated with IP injection of Avertin with final amount calculated by weight (e.g., 0.5 ml for 21-24 g animals). […]

Müller cells = experiment: Arachidonic acid-induced [Ca2+]i in Müller cells; type: cell-based; conditions: 1 μM, 10 μM arachidonic acid
Protocol: This response is blocked by Compound 1 (1 μM).

retinal ganglion cells [3] = experiment: Hypotonic swelling-induced calcium influx into retinal ganglion cells (Fura-2); type: cell-based; conditions: FIG. 17C
From the text: Cells were labeled with fluorescent calcium indicator dye Fura-2 and exposed to hypotonic solutions in which extracellular sodium was replaced by the osmotically inert substance mannitol, as described in […] et al. (J Neurosci. 2011 May 11; 31(19):7089-101; PMID 21562271).

Sequence of TRPV4 (Q9EPK8 whole entry): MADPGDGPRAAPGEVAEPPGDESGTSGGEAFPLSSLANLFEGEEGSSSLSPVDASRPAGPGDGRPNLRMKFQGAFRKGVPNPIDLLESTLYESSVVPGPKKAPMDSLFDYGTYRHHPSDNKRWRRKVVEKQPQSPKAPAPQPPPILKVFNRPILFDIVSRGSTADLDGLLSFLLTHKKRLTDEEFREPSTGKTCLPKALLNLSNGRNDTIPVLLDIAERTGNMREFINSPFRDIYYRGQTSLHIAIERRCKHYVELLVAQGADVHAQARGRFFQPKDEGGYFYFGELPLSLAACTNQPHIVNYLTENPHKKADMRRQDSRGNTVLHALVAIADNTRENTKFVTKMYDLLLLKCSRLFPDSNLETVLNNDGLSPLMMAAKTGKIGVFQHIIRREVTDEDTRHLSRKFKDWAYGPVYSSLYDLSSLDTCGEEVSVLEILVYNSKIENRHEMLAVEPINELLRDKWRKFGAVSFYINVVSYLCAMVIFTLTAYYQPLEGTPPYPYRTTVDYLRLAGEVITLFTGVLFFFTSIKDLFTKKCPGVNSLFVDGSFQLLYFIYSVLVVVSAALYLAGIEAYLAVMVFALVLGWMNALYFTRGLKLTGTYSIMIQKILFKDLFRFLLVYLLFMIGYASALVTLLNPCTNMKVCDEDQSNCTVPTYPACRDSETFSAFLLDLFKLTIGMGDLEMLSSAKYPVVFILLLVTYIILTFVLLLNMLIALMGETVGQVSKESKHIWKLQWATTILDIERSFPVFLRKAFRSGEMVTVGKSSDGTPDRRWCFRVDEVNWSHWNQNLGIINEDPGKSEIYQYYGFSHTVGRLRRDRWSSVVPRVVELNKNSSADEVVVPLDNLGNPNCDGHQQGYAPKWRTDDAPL

Cc1c(C(=O)Nc2cccc(C(F)(F)F)c2)cc(-c2ccccc2)n1CCCN1CCOCC1 [Compound 1, N-(3-(trifluoromethyl)phenyl)-2-methyl-1-(3-morpholinopropyl)-5-phenyl-1H-pyrrole-3-carboxamide]
effect on GSK-evoked increase in [Ca++]i (TRPV4; retinal Müller glial cells): blocked | reversibility of effect on glial calcium levels (TRPV4; superfusion with control saline): reversible, as it can be washed out by 10 minute superfusion with control saline | pressure-induced inward currents (retinal ganglion cell): reversibly antagonized | effect on GSK-induced degeneration of RGC (retinal ganglion cells [1]): blocked | time after dosing at which IOP reduction begins (MB model of glaucoma): 1 h | MB-induced increase in IOP [2]: blocked the increase in IOP to the level observed in control mice | effect on arachidonic acid-induced [Ca2+]i increase (Müller cells): blocked | pressure-dependent influx of calcium in RGCs (retinal ganglion cells [3]): prevents

Source: patent US20150133411A1, “COMPOUNDS WITH TRPV4 ACTIVITY, COMPOSITIONS AND ASSOCIATED METHODS THEREOF” (The University of Utah Research Foundation, priority 2012, published 2015)
